Test results published in patent US10227350B2 (Gilead Sciences, Inc., priority 2016, dated 2019).

What follows are compounds tested against PI3Kβ (Homo sapiens (Human), UniProt P42338) (assay: TR-FRET enzymatic activity assay, PI3Kβ). Settings: 2× Km ATP, 2 μM PIP2, 30 minutes at 25° C., read-out: IC50-PIP-Beta.
Type: biochemical
Experimental: The compounds of formula (I) were characterized for their enzymatic activity against the PI3K isoforms. The activities were measured using a time-resolved fluorescence resonance energy transfer (TR-FRET) assay. TR-FRET monitored the formation of 3,4,5-inositol triphosphate molecule that competed with fluorescently labeled PIPS for binding to the GRP-1 pleckstrin homology domain protein.
Class I PI3K isoforms were expressed and purified as heterodimeric recombinant proteins. All assay reagents and buffers for the TR-FRET assay were purchased from Millipore. […] The compounds were added to the assay solution and incubated for 30 minutes at 25° C.

Chain of PI3Kβ (P42338 whole entry): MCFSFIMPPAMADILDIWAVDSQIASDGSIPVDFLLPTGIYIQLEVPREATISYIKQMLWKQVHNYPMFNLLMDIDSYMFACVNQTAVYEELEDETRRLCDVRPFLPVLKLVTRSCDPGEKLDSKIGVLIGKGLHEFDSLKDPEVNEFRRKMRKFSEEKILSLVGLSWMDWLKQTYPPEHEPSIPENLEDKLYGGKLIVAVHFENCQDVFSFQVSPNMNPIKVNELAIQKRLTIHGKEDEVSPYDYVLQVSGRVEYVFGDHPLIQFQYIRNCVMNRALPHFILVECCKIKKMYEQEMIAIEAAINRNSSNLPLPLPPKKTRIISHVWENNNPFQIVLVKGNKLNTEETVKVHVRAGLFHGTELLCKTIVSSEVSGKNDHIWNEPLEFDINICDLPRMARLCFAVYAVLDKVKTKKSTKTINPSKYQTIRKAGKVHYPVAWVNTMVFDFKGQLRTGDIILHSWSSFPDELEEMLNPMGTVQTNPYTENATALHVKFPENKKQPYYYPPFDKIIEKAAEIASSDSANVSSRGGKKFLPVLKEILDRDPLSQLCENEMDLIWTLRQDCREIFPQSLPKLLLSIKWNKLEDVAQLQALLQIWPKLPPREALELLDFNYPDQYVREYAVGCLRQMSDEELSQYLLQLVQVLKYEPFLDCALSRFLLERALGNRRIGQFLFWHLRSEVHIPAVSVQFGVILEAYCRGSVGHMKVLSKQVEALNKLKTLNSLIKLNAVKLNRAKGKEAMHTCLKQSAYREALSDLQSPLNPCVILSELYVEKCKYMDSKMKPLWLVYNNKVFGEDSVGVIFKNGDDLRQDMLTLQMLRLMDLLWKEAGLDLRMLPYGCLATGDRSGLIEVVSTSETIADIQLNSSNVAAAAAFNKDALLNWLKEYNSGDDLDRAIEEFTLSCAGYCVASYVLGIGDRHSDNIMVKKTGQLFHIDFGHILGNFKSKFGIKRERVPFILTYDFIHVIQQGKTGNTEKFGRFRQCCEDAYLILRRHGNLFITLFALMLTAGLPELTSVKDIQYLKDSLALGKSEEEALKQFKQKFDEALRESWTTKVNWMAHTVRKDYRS
Chain of PI3Kβ (P27986 whole entry partner): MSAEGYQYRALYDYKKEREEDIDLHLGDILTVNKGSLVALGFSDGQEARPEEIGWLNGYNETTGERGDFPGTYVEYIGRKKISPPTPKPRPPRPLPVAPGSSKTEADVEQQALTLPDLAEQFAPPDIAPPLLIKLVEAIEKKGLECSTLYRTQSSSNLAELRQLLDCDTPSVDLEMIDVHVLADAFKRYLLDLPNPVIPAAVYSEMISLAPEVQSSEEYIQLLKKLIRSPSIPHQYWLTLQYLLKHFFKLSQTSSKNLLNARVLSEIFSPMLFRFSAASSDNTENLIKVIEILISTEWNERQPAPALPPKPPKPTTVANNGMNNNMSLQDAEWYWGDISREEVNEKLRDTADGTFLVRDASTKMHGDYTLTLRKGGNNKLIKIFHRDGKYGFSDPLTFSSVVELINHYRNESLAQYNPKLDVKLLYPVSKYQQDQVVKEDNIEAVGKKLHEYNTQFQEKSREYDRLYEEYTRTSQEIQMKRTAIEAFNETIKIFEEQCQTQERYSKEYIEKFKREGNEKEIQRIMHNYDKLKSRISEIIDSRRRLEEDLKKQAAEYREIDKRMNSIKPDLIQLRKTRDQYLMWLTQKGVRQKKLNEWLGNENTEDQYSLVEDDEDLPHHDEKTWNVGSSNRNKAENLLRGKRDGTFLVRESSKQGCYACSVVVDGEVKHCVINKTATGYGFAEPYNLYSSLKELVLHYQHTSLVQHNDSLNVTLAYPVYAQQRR

IC50 [nM]	Structure (SMILES)
2500	Cc1nnc(-c2cc(-c3ccnc(N)c3F)cc3c2nc(C)n3-c2ccnc3c(Cl)ccc(F)c23)[nH]1 (single isomer, unassigned) [Example 111, 4-[3-(8-chloro-5-fluoroquinolin-4-yl)-2-methyl-7-(5-methyl-4H-1,2,4-triazol-3-yl)benzimidazol-5-yl]-3-fluoropyridin-2-amine]
2	Cc1nc2c(-c3nnc[nH]3)cc(-c3ccnc(N)c3F)cc2n1-c1ccnc2c(Cl)ccc(F)c12 [Example 83, 4-[3-(8-chloro-5-fluoroquinolin-4-yl)-2-methyl-7-(4H-1,2,4-triazol-3-yl)benzimidazol-5-yl]-3-fluoropyridin-2-amine]
290	Cc1nc2c(-c3nnc[nH]3)cc(-c3cc(N)nc(N)n3)cc2n1-c1ccnc2c(Cl)cccc12 [Example 57, 6-[3-(8-chloroquinolin-4-yl)-2-methyl-7-(4H-1,2,4-triazol-3-yl)benzimidazol-5-yl]pyrimidine-2,4-diamine]
12	CCCc1nc2c(-c3nnc[nH]3)cc(-c3ccnc(N)c3F)cc2n1-c1ccnc2c(F)cccc12 [Example 87, 3-fluoro-4-[3-(8-fluoroquinolin-4-yl)-2-propyl-7-(4H-1,2,4-triazol-3-yl)benzimidazol-5-yl]pyridin-2-amine]
220	Cc1nc2c(-c3nnc[nH]3)cc(-c3ccnc(C#N)c3)cc2n1-c1ccnc2c(Cl)ccc(F)c12 (single isomer, unassigned) [Example 136, 4-(1-(8-chloro-5-fluoroquinolin-4-yl)-2-methyl-4-(4H-1,2,4-triazol-3-yl)-1H-benzo[d]imidazol-6-yl)picolinonitrile]
18	Cc1nc2c(-c3nnc[nH]3)cc(-c3ccnc(C#N)c3)cc2n1-c1ccnc2c(F)ccc(Cl)c12 [Example 144, 4-(1-(5-chloro-8-fluoroquinolin-4-yl)-2-methyl-4-(4H-1,2,4-triazol-3-yl)-1H-benzo[d]imidazol-6-yl)picolinonitrile]
160	Cc1nc2c(-c3nnc[nH]3)cc(-c3ccnc(C#N)c3)cc2n1-c1ccnc2c(F)ccc(Cl)c12 (single isomer, unassigned) [Example 124, 4-(1-(5-chloro-8-fluoroquinolin-4-yl)-2-methyl-4-(4H-1,2,4-triazol-3-yl)-1H-benzo[d]imidazol-6-yl)picolinonitrile]
10	Cc1nc2c(-c3nnc[nH]3)cc(-c3ccnc(C#N)n3)cc2n1-c1ccnc2c(F)ccc(F)c12 [Example 152, 4-(1-(5,8-difluoroquinolin-4-yl)-2-methyl-4-(4H-1,2,4-triazol-3-yl)-1H-benzo[d]imidazol-6-yl)pyrimidine-2-carbonitrile]
7	Cc1nc2c(-c3nnc[nH]3)cc(-c3ccnc(N)c3F)cc2n1-c1ccnc2cc(F)cc(F)c12 [Example 160, 4-(1-(5,7-difluoroquinolin-4-yl)-2-methyl-4-(4H-1,2,4-triazol-3-yl)-1H-benzo[d]imidazol-6-yl)-3-fluoropyridin-2-amine]
35	Cc1nc2c(-c3nnc[nH]3)cc(-c3ccnc(N)c3)cc2n1-c1ccnc2c(F)cccc12 [Example 61, 4-[3-(8-fluoroquinolin-4-yl)-2-methyl-7-(4H-1,2,4-triazol-3-yl)benzimidazol-5-yl]pyridin-2-amine]
27	Cc1nc2c(-c3nnc[nH]3)cc(-c3cc(F)ncc3F)cc2n1-c1ccnc2c(F)ccc(F)c12 [Example 41, 4-[6-(2,5-difluoropyridin-4-yl)-2-methyl-4-(4H-1,2,4-triazol-3-yl)benzimidazol-1-yl]-5,8-difluoroquinoline]
5	Cc1nc2c(-c3nnc[nH]3)cc(-c3ccnc(N)c3F)cc2n1-c1ccnc2cccc(F)c12 [Example 93, 3-fluoro-4-[3-(5-fluoroquinolin-4-yl)-2-methyl-7-(4H-1,2,4-triazol-3-yl)benzimidazol-5-yl]pyridin-2-amine]
150	Cc1cc(-c2cc(C(N)=O)c3nc(C)n(-c4ccnc5c(Cl)cccc45)c3c2)ccn1 [Example 15, 1-(8-chloroquinolin-4-yl)-2-methyl-6-(2-methylpyridin-4-yl)benzimidazole-4-carboxamide]
89	Cc1cccc2nccc(-n3c(C)nc4c(-c5nnc[nH]5)cc(-c5ccncc5)cc43)c12 [Example 31, 5-methyl-4-[2-methyl-6-pyridin-4-yl-4-(4H-1,2,4-triazol-3-yl)benzimidazol-1-yl]quinoline]
5	Cc1nnc(-c2cc(-c3ccnc(N)c3F)cc3c2nc(C)n3-c2ccnc3c(Cl)ccc(F)c23)[nH]1 (single isomer, unassigned) [Example 112, 4-[3-(8-chloro-5-fluoroquinolin-4-yl)-2-methyl-7-(5-methyl-4H-1,2,4-triazol-3-yl)benzimidazol-5-yl]-3-fluoropyridin-2-amine]
2	Cc1nc2c(-c3nnc[nH]3)cc(-c3ccnc(C#N)c3)cc2n1-c1ccnc2c(Cl)ccc(Cl)c12 [Example 145, 4-(1-(5,8-dichloroquinolin-4-yl)-2-methyl-4-(4H-1,2,4-triazol-3-yl)-1H-benzo[d]imidazol-6-yl)picolinonitrile]
3	Cc1nc2c(-c3nnc[nH]3)cc(-c3ccnc(C#N)c3)cc2n1-c1ccnc2cc(F)cc(F)c12 (single isomer, unassigned) [Example 115, 4-(1-(5,7-difluoroquinolin-4-yl)-2-methyl-4-(4H-1,2,4-triazol-3-yl)-1H-benzo[d]imidazol-6-yl)picolinonitrile]
10	CCCc1nc2c(-c3nnc[nH]3)cc(-c3ccnc(N)c3)cc2n1-c1ccnc2c(F)ccc(F)c12 [Example 72, 4-[3-(5,8-difluoroquinolin-4-yl)-2-propyl-7-(4H-1,2,4-triazol-3-yl)benzimidazol-5-yl]pyridin-2-amine]
7	CCCc1nc2c(-c3nnc[nH]3)cc(-c3ccnc(N)c3)cc2n1-c1ccnc2c(Cl)ccc(F)c12 [Example 63, 4-[3-(8-chloro-5-fluoroquinolin-4-yl)-2-propyl-7-(4H-1,2,4-triazol-3-yl)benzimidazol-5-yl]pyridin-2-amine]
1100	Cc1c(-c2cc(-c3nnc[nH]3)c3nc(C)n(-c4ccnc5c(F)ccc(F)c45)c3c2)ccnc1F [Example 46, 5,8-difluoro-4-[6-(2-fluoro-3-methylpyridin-4-yl)-2-methyl-4-(4H-1,2,4-triazol-3-yl)benzimidazol-1-yl]quinoline]
9	Cc1nc2c(-c3nnc[nH]3)cc(-c3ccnc(C#N)c3)cc2n1-c1ccnc2c(F)cccc12 (single isomer, unassigned) [Example 127, 4-(1-(8-fluoroquinolin-4-yl)-2-methyl-4-(4H-1,2,4-triazol-3-yl)-1H-benzo[d]imidazol-6-yl)picolinonitrile]
210	Cc1nc2c(-c3nnc[nH]3)cc(-c3ccnc(N)c3)cc2n1-c1ccnc2c(F)ccc(F)c12 (single isomer, unassigned) [Example 103, 4-(1-(5,8-difluoroquinolin-4-yl)-2-methyl-4-(4H-1,2,4-triazol-3-yl)-1H-benzo[d]imidazol-6-yl)pyridin-2-amine]
19	Cc1nc2c(-c3nnc[nH]3)cc(-c3ccnc(N)c3)cc2n1-c1ccnc2cccc(F)c12 [Example 55, 4-[3-(5-fluoroquinolin-4-yl)-2-methyl-7-(4H-1,2,4-triazol-3-yl)benzimidazol-5-yl]pyridin-2-amine]
2	Cc1nc2c(-c3nnc[nH]3)cc(-c3ccnc(N)c3F)cc2n1-c1ccnc2c(Cl)cccc12 [Example 80, 4-(1-(8-chloroquinolin-4-yl)-2-methyl-4-(4H-1,2,4-triazol-3-yl)-1H-benzo[d]imidazol-6-yl)-3-fluoropyridin-2-amine]
2	Cc1nc2c(-c3nnc[nH]3)cc(-c3ccnc(F)c3)cc2n1-c1ccnc2c(F)ccc(F)c12 (single isomer, unassigned) [Example 133, 5,8-difluoro-4-(6-(2-fluoropyridin-4-yl)-2-methyl-4-(4H-1,2,4-triazol-3-yl)-1H-benzo[d]imidazol-1-yl)quinoline]
15	Cc1nc2c(C(N)=O)cc(-c3ccncc3)cc2n1-c1ccnc2c(Cl)cccc12 [Example 13, 1-(8-chloroquinolin-4-yl)-2-methyl-6-pyridin-4-ylbenzimidazole-4-carboxamide]
560	Cc1nc2c(-c3nnc[nH]3)cc(-c3ccnc(C#N)c3)cc2n1-c1ccnc2c(F)ccc(F)c12 (single isomer, unassigned) [Example 114, 4-[3-(5,8-difluoroquinolin-4-yl)-2-methyl-7-(4H-1,2,4-triazol-3-yl)benzimidazol-5-yl]pyridine-2-carbonitrile]
2	Cc1nc2c(-c3nnc[nH]3)cc(-c3ccnc(C#N)c3)cc2n1-c1ccnc2c(F)ccc(F)c12 (single isomer, unassigned) [Example 113, 4-[3-(5,8-difluoroquinolin-4-yl)-2-methyl-7-(4H-1,2,4-triazol-3-yl)benzimidazol-5-yl]pyridine-2-carbonitrile]
11	Cc1cc(-c2cc(-c3nnc[nH]3)c3nc(C)n(-c4ccnc5c(F)ccc(F)c45)c3c2)ccn1 (single isomer, unassigned) [Example 142, 5,8-difluoro-4-(2-methyl-6-(2-methylpyridin-4-yl)-4-(4H-1,2,4-triazol-3-yl)-1H-benzo[d]imidazol-1-yl)quinoline]
29	Cc1nc2c(-c3nnc[nH]3)cc(-c3ccnc(N)c3F)cc2n1-c1c(Cl)cnc2c(F)cccc12 (single isomer, unassigned) [Example 107, 4-[3-(3-chloro-8-fluoroquinolin-4-yl)-2-methyl-7-(4H-1,2,4-triazol-3-yl)benzimidazol-5-yl]-3-fluoropyridin-2-amine]
